Measurements reported in article PMC7744367 (European journal of medicinal chemistry, 2020).
Read-outs that look alike come from different tables or passages of the source.

Experiments:
in vitro = settings: human
CQS 3D7 strain = experiment: In vitro antiplasmodial activity, SYBR Green I-based fluorescent assay; type: cell-based, P. falciparum; settings: Plasmodium falciparum, 3D7, 72 h, read-out: Antiplasmodial activity EC50 3D7
[1] = tested on: CQR Dd2 strain of P. falciparum; experiment: microbe, parasite or virus in culture; type: cell-based
[2] = tested on: tightly synchronized P. falciparum Dd2 cultures; experiment: Stage specific action assay; type: cell-based; settings: 5 × EC50, synchronized Dd2, late schizont/segmenters
[3] = tested on: P. falciparum Dd2 asynchronous cultures; experiment: In vitro killing profile assay; type: cell-based; settings: 5 × EC50, Dd2, compound washed out, growth monitored 96 h
[4] = Plasmodium falciparum, DD2, 72 h, read-out: Antiplasmodial activity EC50 Dd2, CQR Dd2 strain, 72 h incubation, at least three independent experiments

Work on `CCN(CC)CCCC(C)Nc1ccnc2cc(Cl)ccc12` (centres unmarked) [CQ, chloroquine] yielded an EC50 at 48 h (in vitro) of 10.4 ± 0.86 µM, an EC50 (CQS 3D7 strain) of 0.02 ± 0.01 µM and an EC50 ([1]; Plasmodium falciparum, DD2, 72 h, read-out: Antiplasmodial activity EC50 Dd2) of 0.17 ± 0.02 µM.

`Clc1ccc2nc(/C=C/c3ccncc3)cc(-n3cc(CN4CCOCC4)nn3)c2c1` [compound 28, (E)-4-((1-(6-chloro-2-(2-(pyridin-4-yl)vinyl)quinolin-4-yl)-1H-1,2,3-triazol-4-yl)-methyl)morpholine] gave an EC50 [1, 4] of over 8 µM.

Compound `CN1CCN(Cc2cn(-c3cc(/C=C/c4ccncc4)nc4ccc(Cl)cc34)nn2)CC1` [compound 29, (E)-6-chloro-4-(4-((4-methylpiperazin-1-yl)methyl)-1H-1,2,3-triazol-1-yl)-2-(2-(pyridin-4-yl)vinyl)quinoline] has an EC50 [1, 4] of over 8 µM.

For `O=C1c2ccccc2C(=O)N1Cc1cn(-c2cc(/C=C/c3ccncc3)nc3ccc(Cl)cc23)nn1` [compound 32, (E)-2-((1-(6-chloro-2-(2-(pyridin-4-yl)vinyl)quinolin-4-yl)-1H-1,2,3-triazol-4-yl)methyl)isoindoline-1,3-dione], the EC50 [1, 4] was over 8 µM.

With `Clc1ccc2nc(/C=C/c3ccncc3)cc(NCCn3cc(CN4CCOCC4)nn3)c2c1` [compound 53, (E)-6-chloro-N-(2-(4-(morpholinomethyl)-1H-1,2,3-triazol-1-yl)ethyl)-2-(2-(pyridin-4-yl)vinyl)quinolin-4-amine] the “fold improved activity over analogue 28” value ([1]; Dd2 EC50 ratio) was “above 5 fold”.

With `O=C1c2ccccc2C(=O)N1Cc1cn(CCNc2cc(/C=C/c3ccncc3)nc3ccc(Cl)cc23)nn1` [compound 57, (E)-2-((1-(2-((6-chloro-2-(2-(pyridin-4-yl)vinyl)quinolin-4-yl)amino)ethyl)-1H-1,2,3-triazol-4-yl)methyl)isoindoline-1,3-dione] the “fold more potent than compound 32” value ([1]; Dd2 EC50 ratio) was about 8 fold.

In the case of `Clc1ccc2nc(/C=C/c3ccncc3)cc(NCCCCn3cc(CN4CCCCC4)nn3)c2c1` [compound 60, (E)-6-chloro-N-(4-(4-(piperidin-1-ylmethyl)-1H-1,2,3-triazol-1-yl)butyl)-2-(2-(pyridin-4-yl)vinyl)quinolin-4-amine], the “effect on intraerythrocytic development, compound added at 42 h” value [2] is reported as “did not affect the schizont maturation and reinvasion of new merozoites” and the “parasite viability after 24 and 48 h exposure” value [3] is reported as “complete loss of parasite viability”.

In the case of “(E)-2-((1-(4-((6-chloro-2-styrylquinolin-4-yl)amino)butyl)-1H-1,2,3-triazol-4-yl)methyl)isoindoline-1,3-dione [compound 64]”, the EC50 ([1]; read-out: Antiplasmodial activity EC50 Dd2, CQR Dd2 strain, 72 h incubation, at least three independent experiments) is reported as 1 ± 0.18 µM.
